Reference: ChEMBL document CHEMBL1150411, “4-(Phenylaminomethylene)isoquinoline-1,3(2H,4H)-diones as potent and selective inhibitors of the cyclin-dependent kinase 4 (CDK4)” (J Med Chem, 2008)
Values after ≈ are worked out from the molar mass of the structure shown.

What was measured:
[1] = biological target: Cyclin-dependent kinase 1/cyclin B1 (Homo sapiens, UniProt P06493); assay: Inhibition of CDK1/Cyclin B1 expressed in Sf9 cells-baculovirus system assessed as retinoblastoma susceptibility gene product phosphorylation
[2] = biological target: Cyclin-dependent kinase 2 (Homo sapiens, UniProt P24941); assay: Inhibition of CDK2/cyclin E expressed in Sf9 cells-baculovirus system assessed as retinoblastoma susceptibility gene product phosphorylation
[3] = biological target: Cyclin-dependent kinase 4/cyclin D1 (Homo sapiens, UniProt P11802); assay: Inhibition of CDK4/cyclin D1 expressed in Sf9 cells-baculovirus system assessed as retinoblastoma susceptibility gene product phosphorylation
MCF7 = assay: Antiproliferative activity against human MCF7 cells by SRB method; type: functional, cell-based
HCT-116 = assay: Antiproliferative activity against human HCT116 cells by SRB method; type: functional, cell-based
[4] = Aqueous solubility at pH 7.4; type: physicochemical

Chain of Cyclin-dependent kinase 1/cyclin B1 (P06493 whole entry): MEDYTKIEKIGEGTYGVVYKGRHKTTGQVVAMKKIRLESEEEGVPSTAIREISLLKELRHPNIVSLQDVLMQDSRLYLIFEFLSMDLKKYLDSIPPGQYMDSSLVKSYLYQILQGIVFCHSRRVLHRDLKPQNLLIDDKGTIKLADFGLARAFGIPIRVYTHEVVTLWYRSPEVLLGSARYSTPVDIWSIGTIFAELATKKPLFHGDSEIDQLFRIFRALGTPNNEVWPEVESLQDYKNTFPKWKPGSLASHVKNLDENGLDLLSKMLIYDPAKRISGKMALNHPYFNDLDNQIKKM
Chain of Cyclin-dependent kinase 1/cyclin B1 (P14635 whole entry, further chain): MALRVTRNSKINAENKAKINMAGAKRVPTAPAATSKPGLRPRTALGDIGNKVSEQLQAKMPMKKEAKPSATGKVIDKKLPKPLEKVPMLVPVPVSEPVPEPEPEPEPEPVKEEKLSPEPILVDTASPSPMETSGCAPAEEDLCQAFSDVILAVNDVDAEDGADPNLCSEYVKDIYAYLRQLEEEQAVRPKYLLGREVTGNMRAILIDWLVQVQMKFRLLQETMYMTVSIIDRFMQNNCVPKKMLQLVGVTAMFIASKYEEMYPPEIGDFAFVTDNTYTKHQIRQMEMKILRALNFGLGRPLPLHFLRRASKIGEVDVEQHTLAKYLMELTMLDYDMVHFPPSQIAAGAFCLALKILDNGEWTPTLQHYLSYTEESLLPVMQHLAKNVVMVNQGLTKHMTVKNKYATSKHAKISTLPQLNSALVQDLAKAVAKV
Chain of Cyclin-dependent kinase 4/cyclin D1 (P11802 whole entry): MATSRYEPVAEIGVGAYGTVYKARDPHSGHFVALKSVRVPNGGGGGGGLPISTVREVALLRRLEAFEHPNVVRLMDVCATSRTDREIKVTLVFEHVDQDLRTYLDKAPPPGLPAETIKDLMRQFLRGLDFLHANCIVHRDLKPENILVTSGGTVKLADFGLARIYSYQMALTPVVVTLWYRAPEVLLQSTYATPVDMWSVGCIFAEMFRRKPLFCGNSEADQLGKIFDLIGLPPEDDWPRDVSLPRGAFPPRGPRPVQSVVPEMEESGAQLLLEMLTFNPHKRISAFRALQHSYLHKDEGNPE
Chain of Cyclin-dependent kinase 4/cyclin D1 (P24385 whole entry, further chain): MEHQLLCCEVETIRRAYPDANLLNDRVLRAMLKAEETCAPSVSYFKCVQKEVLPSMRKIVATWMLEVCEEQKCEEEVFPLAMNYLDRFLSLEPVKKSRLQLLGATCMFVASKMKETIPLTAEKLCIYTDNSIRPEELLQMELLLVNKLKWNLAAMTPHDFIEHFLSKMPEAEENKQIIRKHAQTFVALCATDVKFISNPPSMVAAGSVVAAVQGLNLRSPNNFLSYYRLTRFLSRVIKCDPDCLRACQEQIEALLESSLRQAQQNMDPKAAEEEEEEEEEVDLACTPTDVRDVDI

Row | SMILES | IC50 [1] [µM] | IC50 [2] [µM] | IC50 [3] [µM] | IC50 (MCF7) [µM] | IC50 (HCT-116) [µM] | solubility [4] [µg/mL]
1 | CN1CCN(c2ncc(N/C=C3\C(=O)NC(=O)c4ccc(-c5ccoc5)cc43)cn2)CC1 |  |  |  | 3.2 | 1.1 | 
2 | CN1CC2CC1CN2c1ccc(N/C=C2\C(=O)NC(=O)c3ccc(I)cc32)cc1 (centres undefined) | > 50 | > 50 | 0.32 | 2.6 | 1.9 | 18 (≈ 36 µM)
3 | CN1CCN(c2ccc(N/C=C3\C(=O)NC(=O)c4ccc(/C=C/c5ccccc5)cc43)cc2)CC1 |  |  | 14.3 |  |  | 
4 | COc1ccc(-c2ccc3c(c2)/C(=C/Nc2ccc(CN4CCCCC4)cc2)C(=O)NC3=O)cc1 | > 50 | > 50 | 0.13 |  |  | 
5 | O=C1NC(=O)c2ccc(I)cc2/C1=C/Nc1ccc(CN2CCCCC2)cc1 | > 50 |  |  | 1 | 2.7 | 
6 | C[C@@H]1CN(c2ccc(N/C=C3\C(=O)NC(=O)c4ccc(I)cc43)cc2)[C@@H](C)CN1C | > 50 | > 50 | 3 | 1 | 5 | 4 (≈ 7.75 µM)
7 | CN1CCN(c2ccc(N/C=C3\C(=O)NC(=O)c4ccc(-c5ccoc5)cc43)cc2)CC1 | > 50 |  |  | 1.1 | 1.2 | 
8 | CN1CCN(c2ccc(N/C=C3\C(=O)NC(=O)c4ccc(-c5ccoc5)cc43)cc2F)CC1 | > 50 |  |  | 0.9 | 2.2 | 
9 | CN1CCN(c2ccc(N/C=C3\C(=O)NC(=O)c4cc(Br)ccc43)cc2)CC1 | > 50 |  | 12.1 |  |  | 
10 | O=C1NC(=O)c2ccc(-c3ccccc3)cc2/C1=C/Nc1ccc(CN2CCCCC2)cc1 | > 50 | > 50 | 0.32 |  |  | 
11 | CN1CCN(c2cnc(N/C=C3\C(=O)NC(=O)c4ccc(-c5ccoc5)cc43)cn2)CC1 |  |  | 1.25 | 1.3 | 0.95 | 
12 | O=C1NC(=O)c2ccc(-n3cccc3)cc2/C1=C/Nc1ccc(CN2CCCCC2)cc1 | > 50 | > 50 | 0.14 | 2.1 | 2.7 | 
13 | CN(C)C(=O)c1ccc2c(c1)/C(=C/Nc1ccc(CN3CCCCC3)cc1)C(=O)NC2=O | > 50 | 39.8 |  |  |  | 
14 | O=C1NC(=O)c2ccc(-c3ccsc3)cc2/C1=C/Nc1ccc(CN2CCCCC2)cc1 | > 50 |  | 0.13 | 3.4 | 1 | 
15 | CN1CCN(c2ccc(N/C=C3\C(=O)NC(=O)c4ccc(-c5ccoc5)cc43)nn2)CC1 |  |  |  | 4.5 | 1.9 | 
16 | O=C1NC(=O)c2ccc(Nc3ccccc3)cc2/C1=C/Nc1ccc(CN2CCCCC2)cc1 | > 50 |  |  |  |  | 
17 | O=C1NC(=O)c2ccc(-c3ccoc3)cc2/C1=C/Nc1ccc(CN2CCCCC2)cc1 | > 50 | > 50 |  |  |  | 
18 | O=C1NC(=O)c2ccc(-c3cccc(O)c3)cc2/C1=C/Nc1ccc(CN2CCCCC2)cc1 | > 50 | > 50 |  | 2 | 1.3 | 
19 | CN1CCN(c2ccc3c(c2)/C(=C/Nc2ccc(CN4CCCCC4)cc2)C(=O)NC3=O)CC1 | > 50 | > 50 |  |  |  | 
20 | O=C1NC(=O)c2ccc(-c3ccc(F)cc3)cc2/C1=C/Nc1ccc(CN2CCCCC2)cc1 | > 50 | > 50 |  | 0.55 | 1 | 
21 | C[C@@H]1CN(c2ccc(N/C=C3\C(=O)NC(=O)c4ccc(I)cc43)cc2)C[C@H](C)N1C | > 50 |  |  |  |  | 4 (≈ 7.75 µM)
22 | O=C1NC(=O)c2ccc([N+](=O)[O-])cc2/C1=C/Nc1ccc(CN2CCCCC2)cc1 | > 50 | > 50 | 15.1 |  |  | 

Results, then the compound that gave them:

Row | IC50 [1] [µM] | IC50 [2] [µM] | IC50 [3] [µM] | IC50 (MCF7) [µM] | IC50 (HCT-116) [µM] | solubility [4] [µg/mL] | SMILES
23 | > 50 | > 50 |  |  |  |  | O=C1NC(=O)c2ccc(N3CCOCC3)cc2/C1=C/Nc1ccc(CN2CCCCC2)cc1
24 | > 50 | > 50 | 1.62 |  |  |  | CN1CCN(c2ccc(N/C=C3\C(=O)NC(=O)c4ccc(N5CCCCC5)cc43)cc2)CC1
25 | > 50 |  |  |  |  |  | O=C1NC(=O)c2ccc(Cl)cc2/C1=C/Nc1ccc(CN2CCCCC2)cc1
26 | > 50 |  |  |  |  |  | CN1CCN(c2ccc(N/C=C3\C(=O)NC(=O)c4ccc(C(=O)N(C)C)cc43)cc2)CC1
27 | > 50 |  |  |  |  |  | COc1cccc(-c2ccc3c(c2)/C(=C/Nc2ccc(CN4CCCCC4)cc2)C(=O)NC3=O)c1
28 | > 50 | > 50 |  |  |  |  | O=C1NC(=O)c2ccc(-c3ccc(Cl)cc3)cc2/C1=C/Nc1ccc(CN2CCCCC2)cc1
29 | > 50 | > 50 |  |  |  | 5 (≈ 9.95 µM) | CC1CN(c2ccc(N/C=C3\C(=O)NC(=O)c4ccc(I)cc43)cc2)CCN1C (centres undefined)
30 | > 50 |  |  |  |  | 1 (≈ 2.05 µM) | CN1CCN(c2ccc(N/C=C3\C(=O)NC(=O)c4ccc(I)cc43)cc2)CC1
31 | > 27 | 21 | 10 |  |  |  | O=C1NC(=O)c2ccccc2/C1=C/Nc1ccc(CN2CCOCC2)cc1
32 | > 50 | > 50 | 0.11 |  |  |  | CN1CCN(c2ccc(N/C=C3\C(=O)NC(=O)c4ccc(-c5ccoc5)cc43)cn2)CC1
33 | > 27 | 19.6 | 3.3 |  |  |  | O=C1NC(=O)c2ccccc2/C1=C/Nc1ccc(CN2CCCCC2)cc1
34 | > 50 | > 50 | > 50 |  |  |  | O=C1NC(=O)c2ccc(-c3ccc(Oc4ccccc4)cc3)cc2/C1=C\Nc1ccc(CN2CCCCC2)cc1
35 | > 50 | > 50 | 0.39 |  |  |  | CN1CCN(c2ccc(N/C=C3\C(=O)NC(=O)c4ccc(-c5ccccc5)cc43)cc2)CC1
36 | > 29 |  | > 29 |  |  |  | O=C1NC(=O)c2ccccc2/C1=C/Nc1ccc(N2CCOCC2)cc1
37 | > 50 | > 50 | 0.33 |  |  |  | CN1CCN(c2ccc(N/C=C3\C(=O)NC(=O)c4ccc(-c5ccco5)cc43)cc2)CC1
38 | > 50 |  | 3.5 |  |  |  | CC(=O)Nc1ccc2c(c1)/C(=C/Nc1ccc(CN3CCCCC3)cc1)C(=O)NC2=O
39 | > 50 | > 50 | 1 |  |  | 12 (≈ 23.9 µM) | C[C@@H]1CN(c2ccc(N/C=C3\C(=O)NC(=O)c4ccc(I)cc43)cc2)C[C@H](C)N1
40 | > 50 | > 50 | 1 |  |  |  | O=C1NC(=O)c2ccc(N3CCCCC3)cc2/C1=C/Nc1ccc(CN2CCCCC2)cc1
41 | > 50 |  | 0.1 | 2.3 | 1.4 |  | CN1CCN(c2ccc(N/C=C3\C(=O)NC(=O)c4ccc(-c5ccsc5)cc43)cc2)CC1
42 | > 50 | > 50 | 0.05 |  |  |  | O=C1NC(=O)c2ccc(-c3cccnc3)cc2/C1=C/Nc1ccc(CN2CCCCC2)cc1
43 | > 50 | > 50 |  |  |  |  | O=C1NC(=O)c2ccc(-c3ccc(O)cc3)cc2/C1=C/Nc1ccc(CN2CCCCC2)cc1
44 | > 50 | > 50 | 2 |  |  |  | COc1ccc2c(c1)/C(=C/Nc1ccc(CN3CCCCC3)cc1)C(=O)NC2=O
45 | > 50 |  |  |  |  |  | CN1CCN(c2ccc(N/C=C3\C(=O)NC(=O)c4ccc(-c5ccoc5)cc43)nc2)CC1
46 | > 50 | > 50 | 0.14 | 2.3 | 1.5 |  | CN1CCN(c2ccc(N/C=C3\C(=O)NC(=O)c4ccc(-n5cccc5)cc43)cc2)CC1
47 | 13.8 | > 50 | 11 |  |  |  | CC(=O)Nc1ccc2c(c1)/C(=C/Nc1ccc(N3CCN(C)CC3)cc1)C(=O)NC2=O
48 | > 28 | > 28 | 4.1 |  |  |  | CN1CCN(c2ccc(N/C=C3\C(=O)NC(=O)c4ccccc43)cc2)CC1
